Results taken from patent US7435837B2, “Dihydrobenzofuranyl alkanamine derivatives and methods for using same” (Wyeth, priority 2003, dated 2008).

What was measured:
human 5-HT2C receptor = molecular target: T1, human 5-HT2C receptor (Homo sapiens, UniProt P28335); experiment: 5-HT2C receptor-stimulated calcium mobilization (FLIPR) in CHO cells; assay type: cell-based; details: for Emax: CHO, read-out: 5-HT2C Function Emax (%); for Emax / 5-HT2C Function Emax (%): percentage of the response observed with a maximally effective concentration of 5-HT; for EC50: calcium mobilization, CHO cells stably expressing human 5-HT2C, read-out: 5-HT2C Function EC50;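 for all read-outs here: Fluo-3-AM fluorescence read on FLIPR every 1 s, agonist added after 10 baseline reads, response taken as peak minus lowest raw fluorescence count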
T1 sequence (P28335 33-458): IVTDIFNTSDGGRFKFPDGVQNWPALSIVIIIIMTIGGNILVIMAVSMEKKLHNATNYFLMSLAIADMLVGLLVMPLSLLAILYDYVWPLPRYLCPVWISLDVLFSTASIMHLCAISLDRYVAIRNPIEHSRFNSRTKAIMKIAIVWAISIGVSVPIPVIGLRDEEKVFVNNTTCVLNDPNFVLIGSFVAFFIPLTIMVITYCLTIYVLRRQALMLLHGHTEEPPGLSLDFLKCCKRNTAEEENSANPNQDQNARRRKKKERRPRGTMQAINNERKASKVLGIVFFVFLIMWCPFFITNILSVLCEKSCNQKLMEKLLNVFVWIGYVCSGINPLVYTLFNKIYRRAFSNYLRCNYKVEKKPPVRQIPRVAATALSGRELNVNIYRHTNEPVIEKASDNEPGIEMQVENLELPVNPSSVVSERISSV

[1] = molecular target: T2, human 5-hydroxytryptamine-2C (h5-HT2C) receptor (Homo sapiens, UniProt P28335); experiment: [125I]DOI binding to membranes of CHO cells expressing the human 5-HT2C receptor; details: [125I]DOI radioligand, CHO cell membranes, room temperature 60 min; read-out: 5-HT2C Affinity Ki
T2 construct: expressed in transfected cells; host or cells: CHO (Chinese Hamster Ovary) cells; membranes
T2 sequence (P28335 33-458): T1 sequence (P28335 33-458)

| Emax (human 5-HT2C receptor) | EC50 (human 5-HT2C receptor) | Ki [1] | 5-HT2C Function Emax (%) (human 5-HT2C receptor) | Compound |
| --- | --- | --- | --- | --- |
| 90% | 2 nM | 1 nM |  | CNCC1Cc2cc(F)cc(-c3cc(Cl)ccc3Cl)c2O1 (racemic) [Example 449, (±)-{[7-(2,5-dichlorophenyl)-5-fluoro-2,3-dihydro-1-benzofuran-2-yl]methyl}methylamine] |
|  | 1480 nM | 20 nM | 50% | NCC1Cc2cccc(-c3cccc(F)c3)c2O1 (single isomer, unassigned; (-)) [Example 132, (−)-1-[7-(3-fluorophenyl)-2,3-dihydro-1-benzofuran-2-yl]methanamine] |
| 90% | 50 nM | 25 nM |  | CNCC1Cc2cc(C(F)(F)F)cc(-c3ccc(OC)cc3OC)c2O1 (racemic) [Example 526, (±)-N-methyl-1-[7-(2,4-dimethoxyphenyl)-5-(trifluoromethyl)-2,3-dihydro-1-benzofuran-2-yl]methanamine] |
| 100% | 3 nM | 1.1 nM |  | NCC1Cc2cc(Cl)cc(-c3ccc(Cl)cc3Cl)c2O1 (single isomer, unassigned; (-)) [Example 252, (−)-{[5-chloro-7-(2,4-dichlorophenyl)-2,3-dihydro-1-benzofuran-2-yl]methyl}amine] |
|  | 21 nM | 2.7 nM | 80% | CNCC1Cc2cc(OC)cc(-c3c(C)cccc3C)c2O1 (single isomer, unassigned; (+)) [Example 561, (+)-{[7-(2,6-dimethylphenyl)-5-methoxy-2,3-dihydro-1-benzofuran-2-yl]methyl}methylamine] |
| 70% | 93 nM | 1.5 nM |  | CNCC1Cc2cccc(-c3ccc(OC)cc3)c2O1 (racemic) [Example 421, (±)-[(N-methyl-1-[7-(4-methoxyphenyl)-2,3-dihydro-1-benzofuran-2-yl]methanamine] |
| 90% | 22 nM | 3 nM |  | CNCC1Cc2cccc(-c3ccccc3Cl)c2O1 (racemic) [Example 409, (±)-[(N-methyl-1-[7-(2-chlorophenyl)-2,3-dihydro-1-benzofuran-2-yl]methanamine] |
| 90% | 926 nM | 43 nM |  | NCC1Cc2c(cccc2-c2ccccc2)O1 (racemic) [Example 1, (±)-1-(4-phenyl-2,3-dihydro-1-benzofuran-2-yl)methanamine] |
| 80% | 228 nM | 34 nM |  | COc1ccc(-c2cc(C(F)(F)F)cc3c2OC(CN)C3)cc1 (racemic) [Example 326, (±)-{[5-(trifluoromethyl)-7-(4-methoxyphenyl)-2,3-dihydro-1-benzofuran-2-yl]methyl}amine] |
|  | 80 nM | 18 nM | 70% | NCC1Cc2cccc(-c3cc(Cl)ccc3Cl)c2O1 (single isomer, unassigned; (-)) [Example 165, (−)-{[7-(2,5-dichlorophenyl)-2,3-dihydro-1-benzofuran-2-yl]methyl}amine] |
| 90% | 39 nM | 3 nM |  | CNCC1Cc2cc(C)cc(-c3c(C)cccc3C)c2O1 (racemic) [Example 489, (±)-{[7-(2,6-dimethylphenyl)-5-methyl-2,3-dihydro-1-benzofuran-2-yl]methyl}methylamine] |
| 80% | 194 nM | 28 nM |  | COc1ccc(Cl)cc1-c1cc(Cl)cc2c1OC(CN)C2 (racemic) [Example 257, (±)-{[5-chloro-7-(5-chloro-2-methoxyphenyl)-2,3-dihydro-1-benzofuran-2-yl]methyl}amine] |
| 90% | 48 nM | 34 nM |  | NCC1Cc2cc(C(F)(F)F)cc(-c3cc(Cl)ccc3Cl)c2O1 (racemic) [Example 337, (±)-{[7-(2,5-dichlorophenyl)-5-(trifluoromethyl)-2,3-dihydro-1-benzofuran-2-yl]methyl}amine] |
| 90% | 31 nM | 2 nM |  | Cc1cc2c(c(-c3c(C)cccc3C)c1)OC(CN)C2 (racemic) [Example 301, (±)-{[7-(2,6-dimethylphenyl)-5-methyl-2,3-dihydro-1-benzofuran-2-yl]methyl}amine] |
| 100% | 5.4 nM | 0.4 nM |  | Cc1ccccc1-c1cccc2c1OC(CN)C2 (racemic) [Example 47, (±)-1-[7-(2-methylphenyl)-2,3-dihydro-1-benzofuran-2-yl]methanamine] |
| 100% | 0.2 nM | 0.3 nM |  | NCC1Cc2cccc(-c3ccccc3Cl)c2O1 (single isomer, unassigned; (-)) [Example 129, (−)-1-[7-(2-chlorophenyl)-2,3-dihydro-1-benzofuran-2-yl]methanamine] |
| 90% | 4 nM | 1.7 nM |  | NCC1Cc2cc(F)cc(-c3cccnc3)c2O1 (racemic) [Example 206, (±)-[(5-fluoro-7-pyridin-3-yl-2,3-dihydro-1-benzofuran-2-yl)methyl]amine] |
| 70% | 531 nM | 10 nM |  | CNCC1Cc2cc(F)cc(-c3ccccc3C)c2O1 (single isomer, unassigned; (-)) [Example 441, (−)-{[5-fluoro-7-(2-methylphenyl)-2,3-dihydro-1-benzofuran-2-yl]methyl}methylamine] |
| 90% | 8 nM | 0.11 nM |  | COc1cccc(-c2cc(C)cc3c2OC(CN)C3)c1OC (racemic) [Example 294, (±)-{[7-(2,3-dimethoxyphenyl)-5-methyl-2,3-dihydro-1-benzofuran-2-yl]methyl}amine] |
| 90% | 35 nM | 3.8 nM |  | Cc1cc2c(c(-c3ccccc3)c1)OC(CN)C2 (racemic) [Example 281, (±)-{[(5-methyl-7-phenyl-2,3-dihydro-1-benzofuran-2-yl)methyl]amine] |
|  | 101 nM | 1.6 nM | 80% | NCC1Cc2cccc(-c3c(Cl)cccc3Cl)c2O1 (single isomer, unassigned; (+)) [Example 142, (+)-1-[7-(2,6-dichlorophenyl)-2,3-dihydro-1-benzofuran-2-yl]methanamine] |
| 80% | 369 nM | 12 nM |  | NCC1Cc2cc(F)cc(-c3ccc(Cl)cc3)c2O1 (racemic) [Example 200, (±)-{[5-fluoro-7-(4-chlorophenyl)-2,3-dihydro-1-benzofuran-2-yl]methyl}amine] |
| 100% | 14 nM | 1 nM |  | NCC1Cc2cccc(-c3ccccc3F)c2O1 (racemic) [Example 50, (±)-1-[7-(2-fluorophenyl)-2,3-dihydro-1-benzofuran-2-yl]methanamine] |
|  | 54 nM | 4.8 nM | 80% | NCC1Cc2cccc(-c3ccccc3Cl)c2O1 (single isomer, unassigned; (+)) [Example 130, (+)-1-[7-(2-chlorophenyl)-2,3-dihydro-1-benzofuran-2-yl]methanamine] |
| 90% | 21 nM | 4 nM |  | COc1cccc(-c2cc(Cl)cc3c2OC(CN)C3)c1OC (racemic) [Example 249, (±)-{[5-chloro-7-(2,3-dimethoxyphenyl)-2,3-dihydro 1-benzofuran-2-yl]methyl}amine] |
